# In the oligonucleotide strings, read from the 5' end, every base follows the letter of its sugar. An asterisk marks phosphorothioate; unmarked linkages are phosphodiester. Other units and linkages are bracketed, terminal groups are in braces. A string of capitals states the bases alone. {D01} = GalNAc ligand D01, attached to sense strand by a phosphodiester bond; m = 2'-O-methyl; f = 2'-fluoro
# Tested on: Transcriptome
# Assay: In vitro RNA sequencing study (off target risk)
# Assay type: cell-based
# Source text: Transcriptome refers to a sum of all RNA transcripted from specific tissues or cells at a certain time or state, mainly including mRNA and non-encoding RNA. Transcriptome sequencing is to study all mRNA transcripted from specific tissues or cells during a certain period based on an Illumina sequencing platform, is a basis for gene functions and structure study, and plays an important role in understanding the development of organisms and the occurrence of diseases. With the development of gene sequencing technologies and reduction in sequencing cost, RNA-seq, with its advantages of high throughput, high sensitivity and wide application range, has become a main method for transcriptome study. The RNA-seq technical process mainly includes two parts: library construction and sequencing, and biological information analysis.
# RNA was extracted from tissues or cells using a standard extraction method, and subsequently serious quality control was performed on RNA samples. The quality control method was mainly achieved by Agilent 2100 bioanalyzer to precisely detect the integrity of RNA.
# mRNA was obtained mainly by the following two methods: one was to utilize the structural feature that most mRNA in eukaryotes had polyA tails to enrich mRNA with polyA tails using Oligo (dT) magnetic beads; and the other one was to remove ribosomal RNA from total RNA to obtain mRNA. Subsequently, the obtained mRNA was randomly fragmented using divalent cations in NEB Fragmentation Buffer, and library construction was carried out using either an NEB ordinary library construction method or a strand specific library construction method.
# NEB ordinary library construction: a first strand of a cDNA was synthesized in an M-MuLV reverse transcriptase system by using fragmented mRNA as a template and random oligonucleotides as primers. Subsequently, the RNA strand was digested using RNaseH, and a second strand of the cDNA was synthesized in a DNA polymerase I system using dNTPs as a raw material. The purified double-stranded cDNA was subjected to end repair, A tail addition and sequencing linker linkage. About 250-300 bp cDNAs were screened using AMPure XP beads and subjected to PCR amplification, and the PCR product was purified again using AMPure XP beads to finally obtain a library. A kit for library construction was NEBNext® Ultra™ RNA Library Prep Kit for Illumina®.
# Strand specific library construction: a method for synthesizing the first strand of cDNA was the same as the NEB ordinary library construction method except that when the second strand was synthesized, dTTP in dNTPs was replaced by dUTP, and then end repair, A tail addition, sequencing linker linkage and length screening of cDNA were similarly carried out. Subsequently, the second strand of cDNA containing U was digested using USER enzyme followed by PCR amplification to obtain the library. […] A kit used for the library construction was NEB Next® Ultra™ Directional RNA Library Prep Kit for Illumina®.
# After library construction was completed, preliminary quantification was carried out using Qubit2.0 Fluorometer. The library was diluted to 1.5 ng/uL, and subsequently the insert size of the library was detected using Agilent 2100 bioanalyzer. After the insert size met the expectation, the effective concentration of the library was accurately quantified by QRT-PCR (the effective concentration of the library was higher than 2 nM) to ensure the quality of the library.
# After library inspection was qualified, different libraries were subjected to Illumina sequencing after pooling according to effective concentration and target offline data volume requirements. The basic principle of sequencing was sequencing by synthesis. Four fluorescent labeled dNTPs and DNA polymerases as well as linker primers were added in the sequenced flow cell for amplification. […]
substance,measurement,setting,value
"Conjugate 2: Double-stranded RNAi analog against AGT, D01 GalNAc ligand on sense strand; sense SEQ ID NO: 6, antisense SEQ ID NO: 2 containing Z (sense mA*mU*fCfCmAfCfAfAmUmGmAmGmAfGmUmAmCmA-{D01}; antisense CUCACAUGUACNCUCAUUGUGGAUGACGA; antisense: chemistry not given here; antisense strand modified, includes nucleotide analog Z, further chemistry not fully specified)",Downregulate Average,"number of downregulated genes, average",658
same,Downregulate N = 1,"number of downregulated genes, replicate 1",1006
same,Downregulate N = 2,"number of downregulated genes, replicate 2",309
same,Upregulate Average,"number of upregulated genes, average",722
same,Upregulate N = 1,"number of upregulated genes, replicate 1",1033
same,Upregulate N = 2,"number of upregulated genes, replicate 2",410
same,Total Average,"total regulated genes, average",1379
same,Total N = 1,"total regulated genes, replicate 1",2039
same,Total N = 2,"total regulated genes, replicate 2",719

# Source: patent US20260071220A1, “CONJUGATE OF NUCLEOTIDE ANALOG-CONTAINING DOUBLE-STRANDED RNAI ANALOG” (BaseCure Therapeutics LLC, priority 2022, published 2026)
